Target: Mcl-1 protein (Homo sapiens, UniProt Q07820)
Test: Inhibition of Mcl-1 by the fluorescence polarisation technique (Method 1 or Method 2)
Type: binding
Conditions: fluorescence polarisation, Fluorescein labelled ligand; Method 1 (not underlined) or Method 2 (underlined); read-out: IC50 (μM) Mcl-1 FP
Method: The relative binding potency of each compound was determined via Fluorescence Polarisation (FP).
An 11 point serial dilution of each compound was prepared in DMSO and 2 μl transferred into flat bottomed, low binding, 384-well plate (final DMSO concentration 5%). 38 μl of buffer (10 mM 4-(2-hydroxyethyl)-1-piperazineethanesulfonic acid [HEPES], 150 mM NaCl, 0.05% Tween 20, pH 7.4), containing the Fluorescein labelled ligand (final concentration 1 nM) and Mcl-1 protein (final concentration 5 nM) was then added.
An 11 point serial dilution of each compound was prepared in DMSO and 2 μl transferred into flat bottomed, low binding, 384-well plate (final DMSO concentration 5%). 38 μl of buffer (20 mM Na2HPO4, 1 mM EDTA, 50 mM NaCl, pH 7.4), containing the Fluorescein labelled ligand (final concentration 10 nM) and Mcl-1 protein (final concentration 10 nM) was then added.

Mcl-1 protein, sequence (Q07820 whole entry): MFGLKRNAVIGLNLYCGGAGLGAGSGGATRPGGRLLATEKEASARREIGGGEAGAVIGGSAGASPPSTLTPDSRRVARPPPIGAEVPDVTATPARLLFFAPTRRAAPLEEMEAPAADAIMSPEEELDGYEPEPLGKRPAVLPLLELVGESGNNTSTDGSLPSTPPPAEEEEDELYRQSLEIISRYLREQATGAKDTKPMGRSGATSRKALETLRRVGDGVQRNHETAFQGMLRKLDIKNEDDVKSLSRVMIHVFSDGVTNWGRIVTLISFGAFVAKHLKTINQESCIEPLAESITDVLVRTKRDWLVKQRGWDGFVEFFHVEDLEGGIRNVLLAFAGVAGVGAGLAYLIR

SMILES	IC50 [µM]
C=Cc1sc2ncnc(NC(Cc3ccccc3)C(=O)O)c2c1-c1cccc2ccccc12 [Example 103, N-[6-ethenyl-(5Ra)-5-(naphthalen-1-yl)thieno[2,3-d]pyrimidin-4-yl]-D-phenylalanine]	0.715
C/C=C\c1sc2ncnc(N[C@H](Cc3ccccc3)C(=O)O)c2c1-c1cccc2ccccc12 [Example 104, N-[(5Sa)-5-(naphthalen-1-yl)-6-((1Z)-prop-1-en-1-yl)thieno[2,3-d]pyrimidin-4-yl]-D-phenylalanine]	0.046
C/C=C\c1sc2ncnc(N[C@H](Cc3ccccc3)C(=O)O)c2c1-c1cccc2ccccc12 [Example 105, N-[(5Ra)-5-(naphthalen-1-yl)-6-((1Z)-prop-1-en-1-yl)thieno[2,3-d]pyrimidin-4-yl]-D-phenylalanine]	0.704
C=C(C)c1sc2ncnc(NC(Cc3ccccc3)C(=O)O)c2c1-c1cccc2ccccc12 [Example 106, N-[(5Sa)-5-(naphthalen-1-yl)-6-(prop-1-en-2-yl)thieno[2,3-d]pyrimidin-4-yl]-D-phenylalanine]	0.065
C=C(C)c1sc2ncnc(NC(Cc3ccccc3)C(=O)O)c2c1-c1cccc2ccccc12 [Example 107, N-[(5Ra)-5-(naphthalen-1-yl)-6-(prop-1-en-2-yl)thieno[2,3-d]pyrimidin-4-yl]-D-phenylalanine]	0.544
CC=Cc1sc2ncnc(NC(Cc3ccccc3)C(=O)O)c2c1-c1cccc2ccccc12 [Example 108, N-{(5Sa)-5-(naphthalen-1-yl)-6-[(1E)-prop-1-en-1-yl]thieno[2,3-d]pyrimidin-4-yl}-D-phenylalanine]	0.079
CC=Cc1sc2ncnc(NC(Cc3ccccc3)C(=O)O)c2c1-c1cccc2ccccc12 [Example 109, N-{(5Ra)-5-(naphthalen-1-yl)-6-[(1E)-prop-1-en-1-yl]thieno[2,3-d]pyrimidin-4-yl}-D-phenylalanine]	1.86
CCc1sc2ncnc(N[C@](C)(Cc3ccccc3)C(=O)O)c2c1-c1cccc(Cl)c1C [Example 119, N-[5-(3-chloro-2-methylphenyl)-6-ethylthieno[2,3-d]pyrimidin-4-yl]-alpha-methyl-D-phenylalanine]	1.46
CCc1sc2ncnc(NC(Cc3ccccc3C#N)C(=O)O)c2c1-c1cccc(Cl)c1C [Example 127, N-[(5Sa)-5-(3-chloro-2-methylphenyl)-6-ethylthieno[2,3-d]pyrimidin-4-yl]-2-cyano-D-phenylalanine]	0.913
CCc1sc2ncnc(NC(Cc3c(F)cccc3F)C(=O)O)c2c1-c1cccc(Cl)c1C [Example 131, N-[(5Sa)-5-(3-chloro-2-methylphenyl)-6-ethylthieno[2,3-d]pyrimidin-4-yl]-2,6-difluoro-D-phenylalanine]	0.495
CCc1sc2ncnc(NC(Cc3ccccc3C(N)=O)C(=O)O)c2c1-c1cccc(Cl)c1C [Example 134, 2-carbamoyl-N-[(5Sa)-5-(3-chloro-2-methylphenyl)-6-ethylthieno[2,3-d]pyrimidin-4-yl]-D-phenylalanine]	0.176
CCc1sc2ncnc(NC(Cc3ccccc3[N+](=O)[O-])C(=O)O)c2c1-c1cccc(Cl)c1C [Example 136, N-[(5Sa)-5-(3-chloro-2-methylphenyl)-6-ethylthieno[2,3-d]pyrimidin-4-yl]-2-nitro-D-phenylalanine]	0.146

Results, then the compound that gave them:

IC50 [µM]	SMILES
0.664	CCc1sc2ncnc(NC(Cc3ccccc3C(F)(F)F)C(=O)O)c2c1-c1cccc(Cl)c1C [Example 138, N-[(5Sa)-5-(3-chloro-2-methylphenyl)-6-ethylthieno[2,3-d]pyrimidin-4-yl]-2-(trifluoromethyl)-D-phenylalanine]
0.208	CCc1sc2ncnc(NC(Cc3ccccc3Br)C(=O)O)c2c1-c1cccc(Cl)c1C [Example 140, 2-bromo-N-[(5Sa)-5-(3-chloro-2-methylphenyl)-6-ethylthieno[2,3-d]pyrimidin-4-yl]-D-phenylalanine]
0.335	CCc1sc2ncnc(NC(Cc3ccccc3OCC(=O)N(C)C)C(=O)O)c2c1-c1cccc(Cl)c1C [Example 142, N-[(5Sa)-5-(3-chloro-2-methylphenyl)-6-ethylthieno[2,3-d]pyrimidin-4-yl]-2-[2-(dimethylamino)-2-oxoethoxy]-D-phenylalanine]
0.154	CCc1sc2ncnc(NC(Cc3ccccc3OCCC3CCCC3)C(=O)O)c2c1-c1cccc(Cl)c1C [Example 144, N-[(5Sa)-5-(3-chloro-2-methylphenyl)-6-ethylthieno[2,3-d]pyrimidin-4-yl]-2-(2-cyclopentylethoxy)-D-phenylalanine]
14	CCc1sc2ncnc(NC(Cc3ccccc3OCc3cccc(Cl)c3)C(=O)O)c2c1-c1cccc(Cl)c1C [Example 149, 2-[(3-chlorobenzyl)oxy]-N-[(5Ra)-5-(3-chloro-2-methylphenyl)-6-ethylthieno[2,3-d]pyrimidin-4-yl]-D-phenylalanine]
0.528	CCc1sc2ncnc(NC(Cc3ccccc3OCc3cccc(Cl)c3)C(=O)O)c2c1-c1cccc(Cl)c1C [Example 150, 2-[(3-chlorobenzyl)oxy]-N-[(5Sa)-5-(3-chloro-2-methylphenyl)-6-ethylthieno[2,3-d]pyrimidin-4-yl]-D-phenylalanine]
0.047	CCc1sc2ncnc(NC(Cc3ccccn3)C(=O)O)c2c1-c1cccc(Cl)c1C [Example 152, N-[(5Sa)-5-(3-chloro-2-methylphenyl)-6-ethylthieno[2,3-d]pyrimidin-4-yl]-3-pyridin-2-yl-D-alanine]
2.32	CCc1sc2ncnc(NC(Cc3ccccc3OCCN3CCN(C)CC3)C(=O)O)c2c1-c1cccc(Cl)c1C [Example 154, N-[(5Sa)-5-(3-chloro-2-methylphenyl)-6-ethylthieno[2,3-d]pyrimidin-4-yl]-2-[2-(4-methylpiperazin-1-yl)ethoxy]-D-phenylalanine]

Same assay, conditions: partial inhibitors; @ 10 μM test compound

percentage fluorescence polarisation inhibition, Mcl-1 FP [% @ 10 μM]	SMILES
32.75	CCc1sc2ncnc(N[C@H](Cc3ccccc3Br)C(=O)O)c2c1-c1cccc(Cl)c1C [Example 139, 2-bromo-N-[(5Ra)-5-(3-chloro-2-methylphenyl)-6-ethylthieno[2,3-d]pyrimidin-4-yl]-D-phenylalanine]
26.78	CCc1sc2ncnc(NC(Cc3ccccc3OCC(=O)N(C)C)C(=O)O)c2c1-c1cccc(Cl)c1C [Example 141, N-[(5Ra)-5-(3-chloro-2-methylphenyl)-6-ethylthieno[2,3-d]pyrimidin-4-yl]-2-[2-(dimethylamino)-2-oxoethoxy]-D-phenylalanine]

Same assay, conditions: partial inhibitors; @ 50 μM test compound

SMILES	percentage fluorescence polarisation inhibition, Mcl-1 FP [% @ 50 μM]
CCc1sc2ncnc(N[C@H](C(=O)O)[C@H](O)c3ccccc3)c2c1-c1cccc(Cl)c1C [Example 124, (βR)—N-[(5Ra)-5-(3-chloro-2-methylphenyl)-6-ethylthieno[2,3-d]pyrimidin-4-yl]-beta-hydroxy-L-phenylalanine]	75.7
CCc1sc2ncnc(N[C@H](Cc3ccccc3C#N)C(=O)O)c2c1-c1cccc(Cl)c1C [Example 126, N-[(5Ra)-5-(3-chloro-2-methylphenyl)-6-ethylthieno[2,3-d]pyrimidin-4-yl]-2-cyano-D-phenylalanine]	41.2
CCc1sc2ncnc(N[C@H](Cc3c(F)cccc3F)C(=O)O)c2c1-c1cccc(Cl)c1C [Example 130, N-[(5Ra)-5-(3-chloro-2-methylphenyl)-6-ethylthieno[2,3-d]pyrimidin-4-yl]-2,6-difluoro-D-phenylalanine]	67.4
CCc1sc2ncnc(N[C@H](Cc3ccccc3[N+](=O)[O-])C(=O)O)c2c1-c1cccc(Cl)c1C [Example 135, N-[(5Ra)-5-(3-chloro-2-methylphenyl)-6-ethylthieno[2,3-d]pyrimidin-4-yl]-2-nitro-D-phenylalanine]	75.25

The remaining lines, values ahead:

percentage fluorescence polarisation inhibition, Mcl-1 FP [% @ 50 μM]	SMILES
71.05	CCc1sc2ncnc(N[C@H](Cc3ccccc3C(F)(F)F)C(=O)O)c2c1-c1cccc(Cl)c1C [Example 137, N-[(5Ra)-5-(3-chloro-2-methylphenyl)-6-ethylthieno[2,3-d]pyrimidin-4-yl]-2-(trifluoromethyl)-D-phenylalanine]
68.85	CCc1sc2ncnc(NC(Cc3ccccc3OCCC3CCCC3)C(=O)O)c2c1-c1cccc(Cl)c1C [Example 143, N-[(5Ra)-5-(3-chloro-2-methylphenyl)-6-ethylthieno[2,3-d]pyrimidin-4-yl]-2-(2-cyclopentylethoxy)-D-phenylalanine]
75.7	CCc1sc2ncnc(N[C@H](Cc3ccccc3OCCN3CCN(C)CC3)C(=O)O)c2c1-c1cccc(Cl)c1C [Example 153, N-[(5Ra)-5-(3-chloro-2-methylphenyl)-6-ethylthieno[2,3-d]pyrimidin-4-yl]-2-[2-(4-methylpiperazin-1-yl)ethoxy]-D-phenylalanine]
63.15	CCc1sc2ncnc(N[C@H](Cc3ccccc3OCCN(C)C)C(=O)O)c2c1-c1cccc(Cl)c1C [Example 155, N-[(5Ra)-5-(3-chloro-2-methylphenyl)-6-ethylthieno[2,3-d]pyrimidin-4-yl]-2-[2-(dimethylamino)ethoxy]-D-phenylalanine]

Same assay, conditions: partial inhibitors; @ 66.7 μM test compound

percentage fluorescence polarisation inhibition, Mcl-1 FP [% @ 66.7 μM]	SMILES
71.3	CCc1sc2ncnc(NC(Cc3ccccn3)C(=O)O)c2c1-c1cccc(Cl)c1C [Example 151, N-[(5Ra)-5-(3-chloro-2-methylphenyl)-6-ethylthieno[2,3-d]pyrimidin-4-yl]-3-pyridin-2-yl-D-alanine]
